Experimental data from patent US9850283B2, “Macrocyclic inhibitors of the PD-1/PD-L1 and CD80(B7-1)/PD-L1 protein/protein interactions” (BRISTOL-MYERS SQUIBB COMPANY, priority 2013, dated 2017).
Read-outs that look alike come from different tables or passages of the source. Positions of bridges follow the written chain, without caps; N, C: chain ends. Non-standard residues stand in square brackets, D forms with d. Residues, ends and D or L forms follow the SMILES beside them. ξ: configuration not given here. Phe(4-Cl) = N[C@@H](Cc1ccc(Cl)cc1)C(=O)O; 1Nal = N[C@@H](Cc1cccc2ccccc12)C(=O)O; 2Nal = N[C@@H](Cc1ccc2ccccc2c1)C(=O)O; NMeF = CN[C@@H](Cc1ccccc1)C(=O)O; NMeNle = CCCC[C@H](NC)C(=O)O; ξY = NC(Cc1ccc(O)cc1)C(=O)O; NMeA = CN[C@@H](C)C(=O)O; ξP = O=C(O)C1CCCN1; Sar = CNCC(=O)O

What was measured:
[1] = molecular target: T1, Human PD-L1/PD-1 (Homo sapiens, UniProt Q9NZQ7); assay: HTRF PD-1-Ig/PD-L1-His binding assay (human PD-L1); conditions: read-out: HTRF Human PD-L1/PD-1 Binding Assay IC50
T1 construct: made in house; host or cells: HEK293T
Outline: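 Soluble Fc-fused PD-1 and His-tagged PD-L1 (truncated before the transmembrane region) were combined in dPBS with 0.1% (w/v) BSA and 0.05% (v/v) Tween-20. Binding was read by HTRF using europium cryptate anti-Ig antibody (1 nM final) and APC anti-His antibody (20 nM final).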

[2] = molecular target: Hu PD-L1/PD-1 (Homo sapiens, UniProt Q9NZQ7); assay: Cell binding assay Hu PD-L1/PD-1 (Tables 11-13, cell line not given); format: cell-based
Description: The ability of the macrocyclic peptides of the present disclosure to bind to Jurkat, mouse B cell line (LK35.2), and a human lung adenocarcinoma cell line (L2987) was investigated. Jurkat-PD-1 Cell Binding Assay. Phycoerythrin (PE) was covalently linked to the Ig epitope tag of human PD-L1-Ig and fluorescently-labeled PD-L1-Ig was used for binding studies with a Jurkat cell line over-expressing human PD-1 (Jurkat-PD-1). […] Cells were washed 3× in dPBS. Cells were resuspended in 200 μl of dPBS and binding was measured by flow cytometry. LK35.2-hPD-L1 Cell Binding Assay. Phycoerythrin (PE) was covalently linked to the Ig eptitope tag of human PD-1-Ig and fluorescently-labeled PD-1-Ig was used for binding studies with a mouse B cell line (LK35.2) stably over-expressing human PD-L1 (LK35.2-hPD-L1). Briefly, […] LK35.2-hPD-L1 cells were pre-incubated with inhibitor for 15 m in a 30 μl volume of RPMI supplemented with 2% fetal calf serum. 20 μl of PE-labeled PD-1-Ig (2 nM final), diluted in RPMI supplemented with 2% fetal calf serum, was dispensed on top of cells and inhibitor and binding was allowed to take place for 1 h at room temperature. Cells were washed 3× in dPBS. Cells were resuspended in 200 μl of dPBS and binding was measured by flow cytometry. L2987 Cellomics Cell Binding Assay. Phycoerythrin (PE) was covalently linked to the Ig eptitope tag of human PD-1-Ig and fluorescently-labeled PD-1-Ig was used for binding studies with a human lung adenocarcinoma cell line (L2987) which naturally expresses PD-L1. […] The following day, inhibitors were diluted in serum-free DMEM and 25 μl was dispensed on top of cells. […] Samples were incubated for 1 h at 37° C. followed by 2 washes in dPBS and fixation for 30 m with 4% paraformaldehyde. Samples were further washed 2× in dPBS. Hoechst (final 1 μg/ml) was added to final wash to stain nuclei. Plates were processed using a Cellomics […]®.

[3] = Table 9, Compound No. 71 variant macrocyclic peptides
[4] = Table 13, Compound No. 71 series
[5] = Table 8, Compound No. 1 variant macrocyclic peptides

Sequence of Hu PD-L1/PD-1 (Q9NZQ7 19-290): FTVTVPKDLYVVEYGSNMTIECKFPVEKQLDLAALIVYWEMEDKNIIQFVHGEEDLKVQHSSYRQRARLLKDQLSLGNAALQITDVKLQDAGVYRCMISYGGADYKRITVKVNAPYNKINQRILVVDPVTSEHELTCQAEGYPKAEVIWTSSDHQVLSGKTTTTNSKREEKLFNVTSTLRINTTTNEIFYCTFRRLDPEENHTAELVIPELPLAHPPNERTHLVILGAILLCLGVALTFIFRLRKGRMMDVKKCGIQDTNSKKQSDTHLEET
T1 sequence (Q9NZQ7 with tags, fused parts or gaps): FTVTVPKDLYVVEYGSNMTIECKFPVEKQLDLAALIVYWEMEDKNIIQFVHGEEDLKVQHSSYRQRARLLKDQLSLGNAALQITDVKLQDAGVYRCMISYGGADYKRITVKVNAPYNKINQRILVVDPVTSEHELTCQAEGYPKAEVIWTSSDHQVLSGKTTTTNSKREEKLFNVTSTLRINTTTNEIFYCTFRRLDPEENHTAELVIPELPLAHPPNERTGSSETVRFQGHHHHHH

| IC50 [1, 3] [nM] | IC50 [2, 4] [nM] | IC50 [1, 5] [nM] | IC50 [2] [nM] | SMILES |
| --- | --- | --- | --- | --- |
| 25 | 73 |  |  | CCCC[C@H]1C(=O)N(C)CC(=O)N[C@@H](CC(=O)O)C(=O)N[C@@H](C(C)C)C(=O)N(C)[C@@H](Cc2ccccc2)C(=O)N[C@@H](Cc2ccc(O)cc2)C(=O)N(C)CC(=O)N[C@@H](Cc2c[nH]c3ccccc23)C(=O)N[C@@H](Cc2ccc(O)cc2)C(=O)N[C@@H](C)C(=O)N[C@H](C(=O)NCC(N)=O)CSCC(=O)N[C@@H](Cc2ccccc2)C(=O)N(C)[C@@H](Cc2ccccc2)C(=O)N1C [Compound No. 87] (HELM PEPTIDE1{[O=C(C[*:3])[*:2]].F.[meF].[CCCC[C@@H](C(=O)[*:2])N(C)[*:1]].[Sar].D.V.[meF].Y.[Sar].W.Y.A.C.G.[am]}$PEPTIDE1,PEPTIDE1,1:R3-14:R3$$$V2.0) |
| > 10000 | > 10000 |  |  | CCCC[C@@H]1NC(=O)[C@H](Cc2ccccc2)N(C)C(=O)[C@H](Cc2ccccc2)NC(=O)CSC[C@@H](C(=O)NCC(N)=O)NC(=O)[C@H](CC(C)C)NC(=O)[C@H](Cc2ccc(O)cc2)NC(=O)[C@H](Cc2c[nH]c3ccccc23)NC(=O)CN(C)C(=O)[C@H](Cc2ccc(O)cc2)NC(=O)[C@H](Cc2ccccc2)N(C)C(=O)[C@H](C(C)C)NC(=O)[C@H](CC(=O)O)NC(=O)CN(C)C1=O [Compound No. 76] (HELM PEPTIDE1{[O=C(C[*:3])[*:2]].F.[meF].[Nle].[Sar].D.V.[meF].Y.[Sar].W.Y.L.C.G.[am]}$PEPTIDE1,PEPTIDE1,1:R3-14:R3$$$V2.0) |
|  |  | 15 | 13 | CCCC[C@H]1C(=O)N(C)[C@@H](CCCC)C(=O)N[C@@H](CCCNC(=N)N)C(=O)N[C@@H](C(=O)NCC(N)=O)CSCC(=O)N[C@@H](Cc2ccc3ccccc3c2)C(=O)N(C)[C@@H](C)C(=O)N[C@@H](CC(N)=O)C(=O)N2CCC[C@H]2C(=O)N[C@@H](Cc2cnc[nH]2)C(=O)N[C@@H](CC(C)C)C(=O)N(C)CC(=O)N[C@@H](Cc2c[nH]c3ccccc23)C(=O)N[C@@H](CO)C(=O)N[C@@H](Cc2c[nH]c3ccccc23)C(=O)N1C [Compound No. 26] ({CH2CO}-[2Nal][NMeA]NPHL[Sar]WSW[NMeNle][NMeNle]R[dC]G-NH2; thioether N-14) |
|  |  | 20 | 28 | CCCC[C@H]1C(=O)N(C)[C@@H](CCCC)C(=O)N[C@@H](CCCNC(=N)N)C(=O)N[C@@H](C(=O)NCC(N)=O)CSCC(=O)N[C@@H](Cc2cccc3ccccc23)C(=O)N(C)[C@@H](C)C(=O)N[C@@H](CC(N)=O)C(=O)N2CCC[C@H]2C(=O)N[C@@H](Cc2cnc[nH]2)C(=O)N[C@@H](CC(C)C)C(=O)N(C)CC(=O)N[C@@H](Cc2c[nH]c3ccccc23)C(=O)N[C@@H](CO)C(=O)N[C@@H](Cc2c[nH]c3ccccc23)C(=O)N1C [Compound No. 27] ({CH2CO}-[1Nal][NMeA]NPHL[Sar]WSW[NMeNle][NMeNle]R[dC]G-NH2; thioether N-14) |
|  |  | 9 | 7 | CCCC[C@H]1C(=O)N(C)[C@@H](CCCC)C(=O)N[C@@H](CCCNC(=N)N)C(=O)N[C@H](C(=O)NCC(N)=O)CSCC(=O)N[C@@H](Cc2ccc(Cl)cc2)C(=O)N(C)[C@@H](C)C(=O)N[C@@H](CC(N)=O)C(=O)N2CCC[C@H]2C(=O)N[C@@H](Cc2cnc[nH]2)C(=O)N[C@@H](CC(C)C)C(=O)N(C)CC(=O)N[C@@H](Cc2c[nH]c3ccccc23)C(=O)N[C@@H](CO)C(=O)N[C@@H](Cc2c[nH]c3ccccc23)C(=O)N1C [Compound No. 33] ({CH2CO}-[Phe(4-Cl)][NMeA]NPHL[Sar]WSW[NMeNle][NMeNle]RCG-NH2; thioether N-14) |
|  |  | 33 | 134 | CCCC[C@H]1C(=O)N[C@@H](CCCNC(=N)N)C(=O)N[C@H](C(=O)NCC(N)=O)CSCC(=O)N[C@@H](Cc2ccccc2)C(=O)N(C)[C@@H](C)C(=O)N[C@@H](CC(N)=O)C(=O)N2CCCC2C(=O)N[C@@H](Cc2cnc[nH]2)C(=O)N[C@@H](CC(C)C)C(=O)N(C)CC(=O)N[C@@H](Cc2c[nH]c3ccccc23)C(=O)N[C@@H](CO)C(=O)N[C@@H](Cc2c[nH]c3ccccc23)C(=O)N(C)[C@@H](C)C(=O)N1C (some centres unmarked) [Compound No. 19] ({CH2CO}-F[NMeA]N[ξP]HL[Sar]WSW[NMeA][NMeNle]RCG-NH2; thioether N-14) |
|  |  | 8980 | > 10000 | CCCC[C@H]1C(=O)N(C)[C@@H](CCCC)C(=O)N[C@@H](CCCNC(=N)N)C(=O)N[C@H](C(=O)NCC(N)=O)CSCC(=O)N[C@@H](Cc2ccccc2)C(=O)N(C)[C@@H](C)C(=O)N[C@@H](CC(N)=O)C(=O)N2CCC[C@H]2C(=O)N[C@@H](Cc2cnc[nH]2)C(=O)N[C@@H](CC(C)C)C(=O)N(C)CC(=O)N[C@@H](Cc2c[nH]c3ccccc23)C(=O)N[C@H](CC(N)=O)C(=O)N[C@@H](Cc2c[nH]c3ccccc23)C(=O)N1C [Compound No. 58] ({CH2CO}-F[NMeA]NPHL[Sar]W[dN]W[NMeNle][NMeNle]RCG-NH2; thioether N-14) |
| > 10000 | > 10000 |  |  | CCCC[C@H]1C(=O)N(C)CC(=O)N[C@@H](CC(=O)O)C(=O)N[C@@H](C(C)C)C(=O)N(C)[C@@H](Cc2ccccc2)C(=O)N[C@@H](Cc2ccc(O)cc2)C(=O)N(C)CC(=O)N[C@@H](Cc2c[nH]c3ccccc23)C(=O)NC(Cc2ccc(O)cc2)C(=O)N[C@@H](CC(C)C)C(=O)N[C@H](C(=O)NCC(N)=O)CSCC(=O)N[C@@H](Cc2ccccc2)C(=O)N[C@@H](Cc2ccccc2)C(=O)N1C (some centres unmarked) [Compound No. 74] ({CH2CO}-FF[NMeNle][Sar]DV[NMeF]Y[Sar]W[ξY]LCG-NH2; thioether N-13) |
|  |  | 5 | 3 | CCCC[C@H]1C(=O)N(C)[C@@H](CCCC)C(=O)N[C@@H](CCCNC(=N)N)C(=O)N[C@H](C(=O)NCC(N)=O)CSCC(=O)N[C@@H](Cc2ccc(O)cc2)C(=O)N(C)[C@@H](C)C(=O)N[C@@H](CC(N)=O)C(=O)N2CCC[C@H]2C(=O)N[C@@H](Cc2cnc[nH]2)C(=O)N[C@@H](CC(C)C)C(=O)N(C)CC(=O)N[C@@H](Cc2c[nH]c3ccccc23)C(=O)N[C@@H](CO)C(=O)N[C@@H](Cc2c[nH]c3ccccc23)C(=O)N1C [Compound No. 30] |
| 24 | 16 |  |  | CCCC[C@H]1C(=O)N(C)[C@@H](C)C(=O)N[C@@H](CC(=O)O)C(=O)N[C@@H](C(C)C)C(=O)N(C)[C@@H](Cc2ccccc2)C(=O)N[C@@H](Cc2ccc(O)cc2)C(=O)N(C)CC(=O)N[C@@H](Cc2c[nH]c3ccccc23)C(=O)N[C@@H](Cc2ccc(O)cc2)C(=O)N[C@@H](CC(C)C)C(=O)N[C@H](C(=O)NCC(N)=O)CSCC(=O)N[C@@H](Cc2ccccc2)C(=O)N(C)[C@@H](Cc2ccccc2)C(=O)N1C [Compound No. 77] (HELM PEPTIDE1{[O=C(C[*:3])[*:2]].F.[meF].[CCCC[C@@H](C(=O)[*:2])N(C)[*:1]].[meA].D.V.[meF].Y.[Sar].W.Y.L.C.G.[am]}$PEPTIDE1,PEPTIDE1,1:R3-14:R3$$$V2.0) |
|  |  | 5 | 13 | CCCC[C@H]1C(=O)N(C)[C@@H](CCCC)C(=O)N[C@@H](CCCNC(=N)N)C(=O)N[C@H](C(=O)NCC(N)=O)CSCC(=O)N[C@@H](Cc2ccccc2)C(=O)N(C)[C@@H](C)C(=O)N[C@@H](CC(N)=O)C(=O)N2CCCC2C(=O)N[C@@H](Cc2cnc[nH]2)C(=O)N[C@@H](CC(C)C)C(=O)N(C)CC(=O)N[C@@H](Cc2c[nH]c3ccccc23)C(=O)N[C@@H](C)C(=O)N[C@@H](Cc2c[nH]c3ccccc23)C(=O)N1C (some centres unmarked) [Compound No. 16] ({CH2CO}-F[NMeA]N[ξP]HL[Sar]WAW[NMeNle][NMeNle]RCG-NH2; thioether N-14) |
|  |  | 16 | 35 | CCCC[C@H]1C(=O)N(C)[C@@H](CCCC)C(=O)N[C@@H](CCCNC(=N)N)C(=O)N[C@H](C(=O)NCC(N)=O)CSCC(=O)N[C@@H](Cc2ccccc2)C(=O)N(C)[C@@H](C)C(=O)N[C@@H](CC(N)=O)C(=O)N2CCCC2C(=O)N[C@@H](Cc2cnc[nH]2)C(=O)N[C@@H](CC(C)C)C(=O)N(C)[C@@H](C)C(=O)N[C@@H](Cc2c[nH]c3ccccc23)C(=O)N[C@@H](CO)C(=O)N[C@@H](Cc2c[nH]c3ccccc23)C(=O)N1C (some centres unmarked) [Compound No. 13] ({CH2CO}-F[NMeA]N[ξP]HL[NMeA]WSW[NMeNle][NMeNle]RCG-NH2; thioether N-14) |
|  |  | 24 | 108 | CCCC[C@H]1C(=O)N(C)[C@@H](CCCC)C(=O)N[C@@H](CCCNC(=N)N)C(=O)N[C@H](C(=O)NCC(N)=O)CSCC(=O)N[C@@H](Cc2ccccc2)C(=O)N(C)[C@@H](C)C(=O)N[C@@H](CC(N)=O)C(=O)N2CCC[C@H]2C(=O)N[C@@H](Cc2c[nH]cn2)C(=O)N[C@@H](CC(C)C)C(=O)N[C@@H](CCN)C(=O)N[C@@H](Cc2c[nH]c3ccccc23)C(=O)N[C@@H](CO)C(=O)N[C@@H](Cc2c[nH]c3ccccc23)C(=O)N1C [Compound No. 52] |
